Columns and labels:
Trypsin = target: T1, Trypsin (Bos taurus, UniProt P00760); test: Inhibitory effect on ester-hydrolyzing activity of trypsin (TAMe substrate); assay type: biochemical; conditions: in vitro, TAMe; for IC50: pH 8.6, 37° C., Table 4 bracketed value, read-out: Trypsin ID50
T1 sequence (P00760 24-246): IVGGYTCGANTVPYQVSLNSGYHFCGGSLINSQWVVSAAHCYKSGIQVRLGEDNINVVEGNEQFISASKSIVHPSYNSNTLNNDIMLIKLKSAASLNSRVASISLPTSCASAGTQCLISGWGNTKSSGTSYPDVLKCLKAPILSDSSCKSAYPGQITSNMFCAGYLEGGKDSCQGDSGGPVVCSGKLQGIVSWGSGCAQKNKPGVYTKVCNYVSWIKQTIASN
Procedure: (§1) The enzyme-inhibitory activities in vitro of the compounds of this invention were measured by the following procedure according to the method of M. Muramatsu et al. [[…]. […] After the incubation, 1.5 ml of 2 M alkaline hydroxylamine was added and thoroughly mixed, and allowed to stand at room temperature for 15 minutes.

Human Cl Esterase = target: T2, Human Cl Esterase (Homo sapiens, UniProt P09871); test: Inhibitory effect on ester-hydrolyzing activity of human Cl esterase (ATEe substrate); assay type: biochemical; conditions: in vitro, ATEe, pH 7.4; Table 4 bracketed value; read-out: Cl-esterase ID50
T2 sequence (P09871 438-688 limits assumed): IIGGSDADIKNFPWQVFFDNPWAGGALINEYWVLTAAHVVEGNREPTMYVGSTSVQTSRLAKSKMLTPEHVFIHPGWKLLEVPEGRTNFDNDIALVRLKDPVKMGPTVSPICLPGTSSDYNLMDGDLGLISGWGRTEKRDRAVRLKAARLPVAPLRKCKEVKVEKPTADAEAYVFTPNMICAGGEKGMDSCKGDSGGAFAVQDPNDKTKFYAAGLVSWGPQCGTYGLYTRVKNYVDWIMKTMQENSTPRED
T2 sequence (P09871 16-437 partner limits assumed): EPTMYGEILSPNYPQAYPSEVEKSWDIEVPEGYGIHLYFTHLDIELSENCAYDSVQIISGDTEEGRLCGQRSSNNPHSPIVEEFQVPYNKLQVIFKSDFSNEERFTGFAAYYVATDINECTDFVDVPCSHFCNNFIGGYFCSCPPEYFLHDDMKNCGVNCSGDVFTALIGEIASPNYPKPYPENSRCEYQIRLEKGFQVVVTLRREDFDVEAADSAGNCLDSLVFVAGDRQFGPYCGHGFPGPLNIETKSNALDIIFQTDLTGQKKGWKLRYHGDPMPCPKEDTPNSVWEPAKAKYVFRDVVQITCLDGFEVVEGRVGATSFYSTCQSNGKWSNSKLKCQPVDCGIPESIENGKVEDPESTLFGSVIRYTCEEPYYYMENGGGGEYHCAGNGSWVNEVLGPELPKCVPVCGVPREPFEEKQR
Procedure: It was measured by using 0.1 ml of Cl esterase, 0.1 ml of 0.02 M sodium phosphate buffer solution (pH 7.4 ) and 10 μmoles of ATEe (acetyltyrosine ethyl ester) as substrate following the method described in (1).

[1] = Acute toxicity (LD50) by intraperitoneal administration in mice; conditions: mouse, in vivo, ip
Bovine Thrombin = Bovine Thrombin (Bos taurus, UniProt P00735); test: Inhibitory effect on ester-hydrolyzing activity of bovine thrombin (TAMe substrate); assay type: biochemical
Procedure: The enzyme-inhibitory activities in vitro of the compounds of this invention were measured by the following procedure according to the method of M. Muramatsu et al. [M. Muramatsu, T. Onishi, S. Makino, Y. Hayashi and S. Fujii: J. Biochem., 58, 214 (1965)]
To 0.1 ml of trypsin (5 μg/ml) were added 0.5 ml of 0.1 M borate buffer solution (pH 8.6) containing 10 mM CaCl2, and 0.1 ml of a varying concentration of an inhibitor solution, and preincubation was carried out at 37° C. for 5 minutes. Then, 10 μmoles of the substrate, TAMe (tosylarginine methyl ester), was added, and incubation was preformed at 37° C. for 30 minutes.
After the incubation, 1.5 ml of 2 M alkaline hydroxylamine was added and thoroughly mixed, and allowed to stand at room temperature for 15 minutes. Then, 1.0 ml of each of 18% trichloroacetic acid, 4 N HCl and 10% FeCl3 was added and thoroughly mixed. If necessary, the mixture was centrifuged at 3,000 rpm for 10 minutes, and the absorbance of the supernatant was measured at 530 nm.
It was measured by using 0.4 ml of bovine thrombin […], 0.02 M sodium phosphate buffer solution (pH 7.4) and TAMe as substrate following the method described in (1).

[2] = tested on: clotting activity of thrombin; test: Inhibitory activity on plasma clotting (rabbit platelet poor plasma, thrombin-induced); assay type: biochemical
Procedure: Blood was drawn from carotid artery of an ether anesthetized rabbit with 1/10 volume of 3.8% sodium citrate. Platelet poor plasma (PPP) was prepared from citrated blood which was centrifuged at 3,000 r.p.m. for 15 minutes at 4° C. PPP, 0.9 ml, was taken into cell, 10μ of a compound solution was added and incubated at 37° C. for 10 minutes. […] Compounds were dissolved in distilled water or 50% dimethyl sulfoxide (0.5% final concentration).

Human Plasmin = Human Plasmin (Homo sapiens, UniProt P00747); test: Inhibitory effect on ester-hydrolyzing activity of human plasmin (TAMe substrate); assay type: biochemical; conditions: in vitro, TAMe; for IC50: Table 4 bracketed value, read-out: Plasmin ID50
Procedure: as §1, with “minutes. […] It was measured by using 0.1 ml of plasmin (generated by activation of plasminogen with streptokinase) and TAMe as substrate following the method described in (1).” for “minutes.”

thrombin = test: Inhibitory activity on thrombus formation: protection from lethal thrombin injection in mice; assay type: in vivo, mice (ddY strain); conditions: 10 minutes before thrombin 300 NIH units/kg i.v., No. 91 in 2.5% gum arabic
Procedure: White male mice (ddY strain), 4 weeks age and weighing 18-27 g, were used throughout the experiments. […] The intravenous injection of 300 NIH units/kg of thrombin over 30 seconds into mice was lethal to all animals. The compounds were intraperitoneally administered in doses of 1, 10, and 100 mg/kg in saline unless otherwise described.
Compounds were intraperitoneally administered 10 minutes before thrombin injection. Compound No. 91 was dissolved in 2.5% gum arabic.

Human Plasma Kallikrein = Human Plasma Kallikrein (Homo sapiens, UniProt P03952); test: Inhibitory effect on ester-hydrolyzing activity of human plasma kallikrein (TAMe substrate); assay type: biochemical; conditions: in vitro, TAMe
Procedure: as §1

Sequence of Human Plasmin (P00747 581-810 limits assumed): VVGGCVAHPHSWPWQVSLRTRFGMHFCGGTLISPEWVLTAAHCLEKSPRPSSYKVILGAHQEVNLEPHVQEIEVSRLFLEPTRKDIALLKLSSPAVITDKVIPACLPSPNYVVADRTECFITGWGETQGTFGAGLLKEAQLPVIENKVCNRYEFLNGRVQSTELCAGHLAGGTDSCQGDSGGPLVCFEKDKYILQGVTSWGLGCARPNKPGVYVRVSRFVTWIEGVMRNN
Sequence of Human Plasmin (P00747 97-580 partner limits assumed): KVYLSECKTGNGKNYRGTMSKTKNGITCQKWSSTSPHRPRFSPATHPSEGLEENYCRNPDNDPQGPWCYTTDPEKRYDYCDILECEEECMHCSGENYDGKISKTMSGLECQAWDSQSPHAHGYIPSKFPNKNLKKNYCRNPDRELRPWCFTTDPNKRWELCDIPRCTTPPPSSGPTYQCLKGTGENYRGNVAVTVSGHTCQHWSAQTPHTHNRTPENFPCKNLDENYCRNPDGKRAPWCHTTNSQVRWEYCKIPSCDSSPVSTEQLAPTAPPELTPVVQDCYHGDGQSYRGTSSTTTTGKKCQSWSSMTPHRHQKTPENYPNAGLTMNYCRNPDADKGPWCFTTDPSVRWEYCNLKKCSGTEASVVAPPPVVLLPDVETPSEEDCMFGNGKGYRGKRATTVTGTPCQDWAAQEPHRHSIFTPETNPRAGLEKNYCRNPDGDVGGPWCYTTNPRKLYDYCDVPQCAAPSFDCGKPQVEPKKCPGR
Sequence of Human Plasma Kallikrein (P03952 391-638 limits assumed): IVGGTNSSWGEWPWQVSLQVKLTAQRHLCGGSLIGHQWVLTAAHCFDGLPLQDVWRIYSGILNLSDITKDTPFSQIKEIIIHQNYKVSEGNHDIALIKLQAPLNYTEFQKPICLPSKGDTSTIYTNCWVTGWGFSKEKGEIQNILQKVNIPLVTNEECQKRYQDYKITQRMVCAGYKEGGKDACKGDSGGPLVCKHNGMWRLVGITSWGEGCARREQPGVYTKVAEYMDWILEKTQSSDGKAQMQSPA
Sequence of Human Plasma Kallikrein (P03952 20-390 partner limits assumed): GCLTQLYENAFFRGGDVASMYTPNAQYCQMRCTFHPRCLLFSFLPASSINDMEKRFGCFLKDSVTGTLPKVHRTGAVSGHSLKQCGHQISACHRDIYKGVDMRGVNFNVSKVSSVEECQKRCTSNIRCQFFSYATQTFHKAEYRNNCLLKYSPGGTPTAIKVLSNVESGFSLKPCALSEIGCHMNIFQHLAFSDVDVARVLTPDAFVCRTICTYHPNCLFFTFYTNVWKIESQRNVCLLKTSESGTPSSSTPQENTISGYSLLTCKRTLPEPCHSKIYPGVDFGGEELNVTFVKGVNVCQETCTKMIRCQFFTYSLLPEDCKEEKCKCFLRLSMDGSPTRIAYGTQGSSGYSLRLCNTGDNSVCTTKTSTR

`COC(=O)c1ccc(OC(=O)C2CCCc3ccc(NC(=N)N)cc32)cc1` (centres unmarked) [Compound 144] gave an IC50 (Trypsin) of 14 µM, an IC50 (Human Cl Esterase) of 310 µM and an LD50 [1] of 192 mg/kg. For the same molecule, the IC50 (Bovine Thrombin) was 19 µM, the “Percent inhibition of clotting activity” value ([2]; 3 × 10^-4 M, DMSO control) was 57.3% and the “Percent inhibition of clotting activity” value ([2]; 3 × 10^-5 M, DMSO control) was 1.7%. For the same molecule, the “Percent inhibition of clotting activity” value ([2]; 10^-3 M, DMSO control) was 98.1%, the “Percent inhibition of clotting activity” value ([2]; 10^-4 M, DMSO control) was 58.0% and the “Percent inhibition of clotting activity” value ([2]; 10^-5 M, DMSO control) was -3.6%. The IC50 (Human Plasmin) was 45 µM.
In the case of `COC(=O)c1ccc(OC(=O)C2CCCc3c(NC(=N)N)cccc32)cc1` (centres unmarked) [Compound 118], the IC50 (Trypsin) is reported as 1000 µM, the “% protective” value (thrombin; 1 mg/kg i.p.) is reported as 20% and the “Survived / Tested” value (thrombin; 1 mg/kg i.p.) is reported as 2/10. For the same molecule, the “% protective” value (thrombin; 10 mg/kg i.p.) was 30%, the “Survived / Tested” value (thrombin; 10 mg/kg i.p.) was 3/10 and the “% protective” value (thrombin; 100 mg/kg i.p.) was 40%. For the same molecule, the “Survived / Tested” value (thrombin; 100 mg/kg i.p.) was 4/10, the IC50 (Human Cl Esterase) was 780 µM and the LD50 [1] was 192 mg/kg. It also gave an IC50 (Bovine Thrombin) of 80 µM and an IC50 (Human Plasmin) of 1000 µM.
With `CCOC(=O)c1ccc(OC(=O)C2CCCc3ccc(NC(=N)N)cc32)cc1` (centres unmarked) [Compound 148] the IC50 (Trypsin) was 150 µM, the IC50 (Human Plasma Kallikrein; Table 4 bracketed value, read-out: Kallikrein ID50) was 170 µM and the “% protective” value (thrombin; 1 mg/kg i.p.) was 0%. The “Survived / Tested” value (thrombin; 1 mg/kg i.p.) was 0/10, the “% protective” value (thrombin; 10 mg/kg i.p.) was 30% and the “Survived / Tested” value (thrombin; 10 mg/kg i.p.) was 3/10. For the same molecule, the “% protective” value (thrombin; 100 mg/kg i.p.) was 90%, the “Survived / Tested” value (thrombin; 100 mg/kg i.p.) was 9/10 and the IC50 (Human Cl Esterase) was 260 µM. The LD50 [1] was 92 mg/kg, the IC50 (Bovine Thrombin) was 6 µM and the “Percent inhibition of clotting activity” value ([2]; 3 × 10^-4 M, H2O control) was 55.6%. For the same molecule, the “Percent inhibition of clotting activity” value ([2]; 3 × 10^-5 M, H2O control) was 20.0%, the “Percent inhibition of clotting activity” value ([2]; 10^-3 M, H2O control) was 100% and the “Percent inhibition of clotting activity” value ([2]; 10^-4 M, H2O control) was 6.7%. For the same molecule, the “Percent inhibition of clotting activity” value ([2]; 10^-5 M, H2O control) was -2.2% and the IC50 (Human Plasmin) was 140 µM.
Work on `N=C(N)Nc1cccc2c1CCCC2C(=O)Oc1ccc(Cl)cc1` (centres unmarked) [Compound 111] yielded an inhibition at 1000 µM (Trypsin; at 10^-3 M, read-out: Trypsin percent inhibition) of 19%, an inhibition at 1000 µM (Human Plasma Kallikrein; at 10^-3 M, read-out: Kallikrein percent inhibition) of under 3.2% and an IC50 (Human Cl Esterase) of 680 µM. It also gave an LD50 [1] of 333 mg/kg, an inhibition at 1000 µM (Bovine Thrombin; at 10^-3 M, in vitro, TAMe, read-out: Thrombin percent inhibition) of 18.6% and an inhibition at 1000 µM (Human Plasmin; at 10^-3 M, read-out: Plasmin percent inhibition) of under 3.2%.

Source: patent publication US4214093A, “Amino- or guanidino-1,2,3,4-tetrahydro-1-naphthoic esters” (Torii & Co., Ltd., priority 1977, dated 1980)
